Experimental data taken from patent publication US11793849B2, “Method of Chinese herbal medicine extract used for treating multiple diseases caused by drug resistant bacteria infection” (priority 2016, dated 2023).

System: MDRPA
Test: Checkerboard assay (combined-use MIC, FIC)
Assay type: cell-based, Pseudomonas aeruginosa
Details: for FIC, all strains / MIC50 of the antibiotic after combined use / MIC90 of the antibiotic after combined use / reduction of the antibiotic's MIC50 vs single use / reduction of the antibiotic's MIC90 vs single use / share of strains with FIC ≤ 0.5: 20 MDRPAs
Protocol: Test methods of the sensibilization effects of the test product to similar antibiotics: it is operated by referring to a checkerboard assay recommended by NCCLS.
The checkerboard assay is performed in a 96-pore sterile culture plate.
Calculation of a Fractional Inhibitory Concentration (FIC): FIC=S20b combined-use MIC/S20b single-use MIC+antibiotic combined-use MIC/antibiotic single-use MIC. By calculating the FIC, the combined antibacterial interaction between the EA and the antibiotic is evaluated, with synergistic effect for FIC≤0.5, additive effect for 0.5<FIC≤1, indifferent effect for 1<FIC≤2 and antagonistic effect for FIC>2. According to a sterile growth pore, the optimum concentration ratio between the EA and the antibiotic is founded out. At last, the effect of the EA to strengthen the efficacy of the antibiotic is evaluated.

[1] = antibiotic with 10% ethanol extract
[2] = antibiotic with 60% ethanol extract
[3] = antibiotic with 95% ethanol extract
[4] = antibiotic with EA (water extract)

For CCN1CCN(C(=O)N[C@@H](C(=O)N[C@@H]2C(=O)N3C(C(=O)O)=C(CSc4nnnn4C)CS[C@H]23)c2ccc(O)cc2)C(=O)C1=O [CFP, Cefoperazone], the “FIC, all strains” value [1] was no more than 2, the “MIC50 of the antibiotic after combined use” value (shortened to “MIC50 of the antibiotic”) [1] was 4 µg/mL and the “MIC90 of the antibiotic after combined use” value (shortened to “MIC90 of the antibiotic”) [1] was 256 µg/mL. The “reduction of the antibiotic's MIC50 vs single use” value [1] was 93.75%, the “reduction of the antibiotic's MIC90 vs single use” value [1] was 50% and the “share of strains with FIC ≤ 0.5” value [1] was 35%. The “FIC, all strains” value [2] was no more than 2, the “MIC50 of the antibiotic” value [2] was 4 µg/mL and the “MIC90 of the antibiotic” value [2] was 256 µg/mL. For the same molecule, the “reduction of the antibiotic's MIC50 vs single use” value [2] was 93.75%, the “reduction of the antibiotic's MIC90 vs single use” value [2] was 50% and the “share of strains with FIC ≤ 0.5” value [2] was 20%. For the same molecule, the “FIC, all strains” value [3] was no more than 2, the “MIC50 of the antibiotic” value [3] was 4 µg/mL and the “MIC90 of the antibiotic” value [3] was 128 µg/mL. The “reduction of the antibiotic's MIC50 vs single use” value [3] was 93.75%, the “reduction of the antibiotic's MIC90 vs single use” value [3] was 75% and the “share of strains with FIC ≤ 0.5” value [3] was 40%. The “FIC, all strains” value [4] was no more than 2, the “MIC50 of the antibiotic” value [4] was 0.5 µg/mL and the “MIC90 of the antibiotic” value [4] was 256 µg/mL. For the same molecule, the “reduction of the antibiotic's MIC50 vs single use” value [4] was 99.2%, the “reduction of the antibiotic's MIC90 vs single use” value [4] was 50% and the “share of strains with FIC ≤ 0.5” value [4] was 35%. The “combined-use MIC” value (strain P1, EA (P. clypearia 10% ethanol extract) combined with CFP) was 32 µg/mL, the “combined-use MIC” value (strain P1, EA (P. clypearia water extract) combined with CFP) was 32 µg/mL and the “combined-use MIC” value (strain P2, EA (P. clypearia 10% ethanol extract) combined with CFP) was 128 µg/mL. For the same molecule, the “combined-use MIC” value (strain P2, EA (P. clypearia water extract) combined with CFP) was 128 µg/mL, the “combined-use MIC” value (strain P3, EA (P. clypearia 10% ethanol extract) combined with CFP) was 2 µg/mL and the “combined-use MIC” value (strain P3, EA (P. clypearia water extract) combined with CFP) was 2 µg/mL. The “combined-use MIC” value (strain P4, EA (P. clypearia 10% ethanol extract) combined with CFP) was 4 µg/mL, the “combined-use MIC” value (strain P4, EA (P. clypearia water extract) combined with CFP) was 4 µg/mL and the “combined-use MIC” value (strain P5, EA (P. clypearia 10% ethanol extract) combined with CFP) was 256 µg/mL. For the same molecule, the “combined-use MIC” value (strain P5, EA (P. clypearia water extract) combined with CFP) was 256 µg/mL, the “combined-use MIC” value (strain P6, EA (P. clypearia 10% ethanol extract) combined with CFP) was 256 µg/mL and the “combined-use MIC” value (strain P6, EA (P. clypearia water extract) combined with CFP) was 256 µg/mL. The “combined-use MIC” value (strain P7, EA (P. clypearia 10% ethanol extract) combined with CFP) was 8 µg/mL, the “combined-use MIC” value (strain P7, EA (P. clypearia water extract) combined with CFP) was 16 µg/mL and the “combined-use MIC” value (strain P8, EA (P. clypearia 10% ethanol extract) combined with CFP) was 0.5 µg/mL. The “combined-use MIC” value (strain P8, EA (P. clypearia water extract) combined with CFP) was 0.5 µg/mL, the “combined-use MIC” value (strain P9, EA (P. clypearia 10% ethanol extract) combined with CFP) was 32 µg/mL and the “combined-use MIC” value (strain P9, EA (P. clypearia water extract) combined with CFP) was 32 µg/mL. The “combined-use MIC” value (strain P10, EA (P. clypearia 10% ethanol extract) combined with CFP) was 2 µg/mL, the “combined-use MIC” value (strain P10, EA (P. clypearia water extract) combined with CFP) was 0.5 µg/mL and the “combined-use MIC” value (strain P11, EA (P. clypearia 10% ethanol extract) combined with CFP) was 4 µg/mL. For the same molecule, the “combined-use MIC” value (strain P11, EA (P. clypearia water extract) combined with CFP) was 4 µg/mL, the “combined-use MIC” value (strain P12, EA (P. clypearia 10% ethanol extract) combined with CFP) was 2 µg/mL and the “combined-use MIC” value (strain P12, EA (P. clypearia water extract) combined with CFP) was 0.5 µg/mL. The “combined-use MIC” value (strain P13, EA (P. clypearia 10% ethanol extract) combined with CFP) was 32 µg/mL, the “combined-use MIC” value (strain P13, EA (P. clypearia water extract) combined with CFP) was 32 µg/mL and the “combined-use MIC” value (strain P14, EA (P. clypearia 10% ethanol extract) combined with CFP) was 0.25 µg/mL. The “combined-use MIC” value (strain P14, EA (P. clypearia water extract) combined with CFP) was 0.5 µg/mL, the “combined-use MIC” value (strain P15, EA (P. clypearia 10% ethanol extract) combined with CFP) was 8 µg/mL and the “combined-use MIC” value (strain P15, EA (P. clypearia water extract) combined with CFP) was 16 µg/mL. For the same molecule, the “combined-use MIC” value (strain P16, EA (P. clypearia 10% ethanol extract) combined with CFP) was 256 µg/mL, the “combined-use MIC” value (strain P16, EA (P. clypearia water extract) combined with CFP) was 256 µg/mL and the “combined-use MIC” value (strain P17, EA (P. clypearia 10% ethanol extract) combined with CFP) was 0.5 µg/mL. For the same molecule, the “combined-use MIC” value (strain P17, EA (P. clypearia water extract) combined with CFP) was 0.5 µg/mL, the “combined-use MIC” value (strain P18, EA (P. clypearia 10% ethanol extract) combined with CFP) was 128 µg/mL and the “combined-use MIC” value (strain P18, EA (P. clypearia water extract) combined with CFP) was 128 µg/mL. For the same molecule, the “combined-use MIC” value (strain P19, EA (P. clypearia 10% ethanol extract) combined with CFP) was 0.5 µg/mL, the “combined-use MIC” value (strain P19, EA (P. clypearia water extract) combined with CFP) was 0.5 µg/mL and the “combined-use MIC” value (strain P20, EA (P. clypearia 10% ethanol extract) combined with CFP) was 1 µg/mL. The “combined-use MIC” value (strain P20, EA (P. clypearia water extract) combined with CFP) was 0.5 µg/mL.

For C[C@@H](O)[C@H]1C(=O)N2C(C(=O)O)=C(SCCN=CN)C[C@H]12 [IMP, imipenem], the “FIC, all strains” value [1] was no more than 2, the “MIC50 of the antibiotic” value [1] was 2 µg/mL and the “MIC90 of the antibiotic” value [1] was 16 µg/mL. The “reduction of the antibiotic's MIC50 vs single use” value [1] was 93.75%, the “reduction of the antibiotic's MIC90 vs single use” value [1] was 75% and the “share of strains with FIC ≤ 0.5” value [1] was 50%. The “FIC, all strains” value [2] was no more than 2, the “MIC50 of the antibiotic” value [2] was 2 µg/mL and the “MIC90 of the antibiotic” value [2] was 16 µg/mL. The “reduction of the antibiotic's MIC50 vs single use” value [2] was 93.75%, the “reduction of the antibiotic's MIC90 vs single use” value [2] was 75% and the “share of strains with FIC ≤ 0.5” value [2] was 15%. The “FIC, all strains” value [3] was no more than 2, the “MIC50 of the antibiotic” value [3] was 4 µg/mL and the “MIC90 of the antibiotic” value [3] was 16 µg/mL. For the same molecule, the “reduction of the antibiotic's MIC50 vs single use” value [3] was 75%, the “reduction of the antibiotic's MIC90 vs single use” value [3] was 75% and the “share of strains with FIC ≤ 0.5” value [3] was 40%. The “FIC, all strains” value [4] was no more than 2, the “MIC50 of the antibiotic” value [4] was 2 µg/mL and the “MIC90 of the antibiotic” value [4] was 16 µg/mL. The “reduction of the antibiotic's MIC50 vs single use” value [4] was 93.75%, the “reduction of the antibiotic's MIC90 vs single use” value [4] was 75% and the “share of strains with FIC ≤ 0.5” value [4] was 40%. For the same molecule, the “combined-use MIC” value (strain P1, EA (P. clypearia water extract) combined with IMP) was 16 µg/mL, the “combined-use MIC” value (strain P2, EA (P. clypearia water extract) combined with IMP) was 2 µg/mL and the “combined-use MIC” value (strain P3, EA (P. clypearia water extract) combined with IMP) was 2 µg/mL. The “combined-use MIC” value (strain P4, EA (P. clypearia water extract) combined with IMP) was 2 µg/mL, the “combined-use MIC” value (strain P5, EA (P. clypearia water extract) combined with IMP) was 16 µg/mL and the “combined-use MIC” value (strain P6, EA (P. clypearia water extract) combined with IMP) was 2 µg/mL. The “combined-use MIC” value (strain P7, EA (P. clypearia water extract) combined with IMP) was 2 µg/mL, the “combined-use MIC” value (strain P8, EA (P. clypearia water extract) combined with IMP) was 2 µg/mL and the “combined-use MIC” value (strain P9, EA (P. clypearia water extract) combined with IMP) was 16 µg/mL. For the same molecule, the “combined-use MIC” value (strain P10, EA (P. clypearia water extract) combined with IMP) was 16 µg/mL, the “combined-use MIC” value (strain P11, EA (P. clypearia water extract) combined with IMP) was 4 µg/mL and the “combined-use MIC” value (strain P12, EA (P. clypearia water extract) combined with IMP) was 2 µg/mL. For the same molecule, the “combined-use MIC” value (strain P13, EA (P. clypearia water extract) combined with IMP) was 2 µg/mL, the “combined-use MIC” value (strain P14, EA (P. clypearia water extract) combined with IMP) was 4 µg/mL and the “combined-use MIC” value (strain P15, EA (P. clypearia water extract) combined with IMP) was 8 µg/mL. The “combined-use MIC” value (strain P16, EA (P. clypearia water extract) combined with IMP) was 2 µg/mL, the “combined-use MIC” value (strain P17, EA (P. clypearia water extract) combined with IMP) was 4 µg/mL and the “combined-use MIC” value (strain P18, EA (P. clypearia water extract) combined with IMP) was 4 µg/mL. For the same molecule, the “combined-use MIC” value (strain P19, EA (P. clypearia water extract) combined with IMP) was 4 µg/mL and the “combined-use MIC” value (strain P20, EA (P. clypearia water extract) combined with IMP) was 2 µg/mL.
